pIC50: −log10 of the molar value. The source made the active and inactive calls. The rule behind the calls is not given here.
Legend:
[1] = tested on: SK-OV-3; assay: Antiproliferative activity against human SK-OV-3 cells assessed as inhibition of cell viability incubated for 72 hrs by ATPlite assay; format: functional, cell-based; conditions: SK-OV-3, 72 h
[2] = molecular target: T1, METTL3/METTL14 (Homo sapiens) (UniProt Q86U44+Q9HCE5); assay: (§1) Inhibition of METTL3/METTL14-mediated m6A mRNA expression in human FaDu cells incubated for 24 hrs by LC-MS/MS analysis; format: cell-based
[3] = molecular target: T2, METTL3/METTL14 (Homo sapiens, UniProt Q86U44); assay: as §1; format: cell-based
[4] = molecular target: Cytochrome P450 2C19 (Homo sapiens, UniProt P33261); assay: Inhibition of CYP2C19 (unknown origin); format: ADME
[5] = tested on: Caov-3 cell line; assay: Antiproliferative activity against human Caov-3 cells assessed as inhibition of cell viability incubated for 72 hrs by ATPlite assay; format: functional, cell-based; conditions: Caov-3, 72 h
[6] = Toxicity in NSG mouse xenografted with human FaDu cells assessed as body weight gain at 30 mg/kg, ip qd treated for 20 days; format: organism-based; conditions: in vivo, 480 h, time 20 day
[7] = Stability in human hepatocytes assessed as half life; format: ADME, cell-based, Hepatocyte
[8] = Toxicity in NSG mouse xenografted with human SK-OV-3 cells assessed as body weight gain at 30 mg/kg, ip qd treated for 83 days; format: organism-based; conditions: in vivo, 1992 h, time 83 day
[9] = tested on: SK-OV-3; assay: Antitumor activity against human SK-OV-3 cells xenografted in NSG mouse assessed as prolongation of animal survival at 30 mg/kg, ip qd treated for 83 days; format: functional, organism-based; conditions: time 83.0 day
[10] = tested on: MV4-11; assay: Antitumor activity against human MV4-11 cells expressing Luc-mCh-Puro xenografted in NSG mouse assessed as decrease in hCD45+ cells in blood at 30 mg/kg, ip qd measured after 28 days by flow cytometry; format: functional, organism-based; conditions: time 28.0 day
[11] = molecular target: T1, METTL3/METTL14 (Homo sapiens); assay: (§2) Inhibition of METTL3/METTL14-mediated m6A mRNA expression in human MV4-11 cells incubated for 24 hrs by LC-MS/MS analysis; format: cell-based
[12] = molecular target: T2, METTL3/METTL14; assay: as §2; format: cell-based
[13] = tested on: MV4-11; assay: Antitumor activity against human MV4-11 cells expressing Luc-mCh-Puro xenografted in NSG mouse assessed as decrease in hCD45+ cells in bone marrow at 30 mg/kg, ip qd measured after 28 days by flow cytometry; format: functional, organism-based; conditions: time 28.0 day
[14] = Half life in rat liver microsomes; format: ADME, Microsome
[15] = molecular target: Cytochrome P450 2D6 (Homo sapiens, UniProt P10635); assay: Inhibition of CYP2D6 (unknown origin); format: ADME
[16] = tested on: MV4-11; assay: Antitumor activity against human MV4-11 cells expressing Luc-mCh-Puro xenografted in NSG mouse assessed as decrease in hCD45+ cells in spleen at 30 mg/kg, ip qd measured after 28 days by flow cytometry; format: functional, organism-based; conditions: time 28.0 day
[17] = Toxicity in NSG mouse xenografted with human A549 cells assessed as body weight gain at 30 mg/kg, ip qd treated for 50 days; format: organism-based; conditions: in vivo, 1200 h, time 50 day
[18] = Unbound clearance in Sprague-Dawley rat at 1 mg/kg/day, iv measured for 24 hrs by LC-MS/MS analysis; format: ADME, organism-based; conditions: in vivo
[19] = Unbound fraction in Sprague-Dawley rat plasma at 1 mg/kg/day, iv measured for 24 hrs by LC-MS/MS analysis; format: ADME, organism-based; conditions: in vivo
[20] = molecular target: Cytochrome P450 2C9 (Homo sapiens, UniProt P11712); assay: Inhibition of CYP2C9 (unknown origin); format: ADME
[21] = tested on: A549; assay: Antiproliferative activity against human A549 cells assessed as inhibition of cell viability incubated for 72 hrs by ATPlite assay; format: functional, cell-based; conditions: A549, 72 h
[22] = molecular target: Cytochrome P450 3A4 (Homo sapiens, UniProt P08684); assay: Inhibition of CYP3A4 (unknown origin); format: ADME
[23] = tested on: NCI-H1650; assay: Growth inhibition of human NCI-H1650 cells spheroid model; format: functional, cell-based
[24] = molecular target: T1, METTL3/METTL14 (Homo sapiens); assay: (§3) Inhibition of METTL3/METTL14-mediated m6A mRNA expression in human SK-OV-3 cells incubated for 24 hrs by LC-MS/MS analysis; format: cell-based
[25] = molecular target: T2, METTL3/METTL14; assay: as §3; format: cell-based
[26] = molecular target: T2, METTL3/METTL14; assay: Displacement of [3H]-SAM from METTL3/METTL14 (unknown origin) using 5'biotinylated-UACACUCGAUCUGGACUAAAGGUGCUC-3' RNA as substrate preincubated for 10 mins followed by substrate/[3H]-SAM addition measured after 90 mins by SPA; format: protein-complex assay
[27] = Toxicity in NSG mouse xenografted with human A549 cells assessed as macroscopic adverse events at 30 mg/kg, ip qd treated for 50 days; format: organism-based; conditions: in vivo, 1200 h, time 50 day
[28] = Unbound AUC in Sprague-Dawley rat at 1 mg/kg/day, iv measured for 24 hrs by LC-MS/MS analysis; format: ADME, organism-based; conditions: in vivo
[29] = tested on: FaDu; assay: Antiproliferative activity against human FaDu cells assessed as inhibition of cell viability incubated for 72 hrs by ATPlite assay; format: functional, cell-based
[30] = molecular target: T1, METTL3/METTL14 (Homo sapiens); assay: (§4) Inhibition of METTL3/METTL14-mediated m6A mRNA expression in human Kasumi 1 cells incubated for 24 hrs by LC-MS/MS analysis; format: cell-based
[31] = molecular target: T2, METTL3/METTL14; assay: as §4; format: cell-based
[32] = tested on: FaDu; assay: Antitumor activity against human FaDu cells xenografted in NSG mouse assessed as tumor growth inhibition at 30 mg/kg, ip qd treated for 20 days; format: functional, organism-based; conditions: time 20.0 day
[33] = tested on: Acute myeloid leukemic cell; assay: Antitumor activity against patient-derived human Acute myeloid leukemic cells xenografted in NSG mouse assessed as prolongation of animal survival at 30 mg/kg, ip qd treated for 91 days measured upto 112 days; format: functional, organism-based; conditions: time <= 112.0 day
[34] = tested on: SK-OV-3; assay: Antitumor activity against human SK-OV-3 cells xenografted in NSG mouse assessed as tumor growth inhibition at 30 mg/kg, ip qd treated for 52 days by bioluminescence imaging analysis; format: functional, organism-based; conditions: time 52.0 day
[35] = molecular target: Voltage-gated inwardly rectifying potassium channel KCNH2 (Homo sapiens, UniProt Q12809); assay: Inhibition of hERG transfected in HEK293 cells at 20 mV; format: toxicity, cell-based
[36] = tested on: MV4-11; assay: Antiproliferative activity against human MV4-11 cells assessed as inhibition of cell viability incubated for 72 hrs by ATPlite assay; format: functional, cell-based; conditions: MV4-11, 72 h
[37] = tested on: MV4-11; assay: Antitumor activity against human MV4-11 cells expressing Luc-mCh-Puro xenografted in NSG mouse administered intraperitoneally once daily measured after 19 days by bioluminescence imaging analysis; conditions: dose 10-30 mg/kg, route ip, time 19.0 day
[38] = tested on: Kasumi 1; assay: Antiproliferative activity against human Kasumi 1 cells assessed as inhibition of cell viability incubated for 72 hrs by ATPlite assay; format: functional, cell-based; conditions: Kasumi 1, 72 h
[39] = Half life in human liver microsomes; format: ADME, Microsome
[40] = molecular target: T1, METTL3/METTL14 (Homo sapiens); assay: (§5) Inhibition of METTL3/METTL14-mediated m6A mRNA expression in human Calu-6 cells incubated for 24 hrs by LC-MS/MS analysis; format: cell-based
[41] = molecular target: T2, METTL3/METTL14; assay: as §5; format: cell-based
[42] = tested on: FaDu; assay: Antitumor activity against human FaDu cells xenografted in NSG mouse assessed as prolongation of animal survival at 30 mg/kg, ip qd treated for 20 days; format: functional, organism-based; conditions: time 20.0 day
[43] = tested on: HepG2; assay: Cytotoxicity against human HepG2 cells assessed as cell viability at 50 uM relative to control; format: functional; conditions: read-out: Activity

T2 sequence (Q86U44 whole entry): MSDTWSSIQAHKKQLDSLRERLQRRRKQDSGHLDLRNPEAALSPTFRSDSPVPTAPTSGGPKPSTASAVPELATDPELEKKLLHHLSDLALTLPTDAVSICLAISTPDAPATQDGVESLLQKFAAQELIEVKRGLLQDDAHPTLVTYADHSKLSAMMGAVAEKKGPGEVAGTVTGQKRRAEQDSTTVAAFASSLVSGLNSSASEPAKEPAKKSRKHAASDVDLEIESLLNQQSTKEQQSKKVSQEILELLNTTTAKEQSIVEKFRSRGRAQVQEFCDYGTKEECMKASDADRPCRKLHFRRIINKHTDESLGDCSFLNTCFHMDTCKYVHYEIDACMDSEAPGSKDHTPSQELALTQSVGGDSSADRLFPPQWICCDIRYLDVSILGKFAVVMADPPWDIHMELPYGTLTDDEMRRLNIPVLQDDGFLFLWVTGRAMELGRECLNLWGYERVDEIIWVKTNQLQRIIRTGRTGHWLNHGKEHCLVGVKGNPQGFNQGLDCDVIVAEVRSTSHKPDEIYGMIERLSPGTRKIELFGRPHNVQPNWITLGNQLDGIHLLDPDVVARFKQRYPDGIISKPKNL
T2 sequence (Q9HCE5 whole entry, further chain): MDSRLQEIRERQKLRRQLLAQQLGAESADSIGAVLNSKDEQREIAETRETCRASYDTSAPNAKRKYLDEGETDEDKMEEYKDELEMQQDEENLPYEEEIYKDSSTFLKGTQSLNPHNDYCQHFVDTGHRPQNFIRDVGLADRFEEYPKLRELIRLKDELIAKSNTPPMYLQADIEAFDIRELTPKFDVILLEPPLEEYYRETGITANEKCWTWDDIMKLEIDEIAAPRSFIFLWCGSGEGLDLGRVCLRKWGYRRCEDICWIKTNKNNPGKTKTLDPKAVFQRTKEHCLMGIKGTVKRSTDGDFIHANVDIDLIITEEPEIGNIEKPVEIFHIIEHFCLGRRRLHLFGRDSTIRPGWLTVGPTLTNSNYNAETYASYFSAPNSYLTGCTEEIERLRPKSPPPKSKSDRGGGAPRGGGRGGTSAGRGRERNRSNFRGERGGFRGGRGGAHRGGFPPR
Chain of Cytochrome P450 2C9 (P11712 whole entry): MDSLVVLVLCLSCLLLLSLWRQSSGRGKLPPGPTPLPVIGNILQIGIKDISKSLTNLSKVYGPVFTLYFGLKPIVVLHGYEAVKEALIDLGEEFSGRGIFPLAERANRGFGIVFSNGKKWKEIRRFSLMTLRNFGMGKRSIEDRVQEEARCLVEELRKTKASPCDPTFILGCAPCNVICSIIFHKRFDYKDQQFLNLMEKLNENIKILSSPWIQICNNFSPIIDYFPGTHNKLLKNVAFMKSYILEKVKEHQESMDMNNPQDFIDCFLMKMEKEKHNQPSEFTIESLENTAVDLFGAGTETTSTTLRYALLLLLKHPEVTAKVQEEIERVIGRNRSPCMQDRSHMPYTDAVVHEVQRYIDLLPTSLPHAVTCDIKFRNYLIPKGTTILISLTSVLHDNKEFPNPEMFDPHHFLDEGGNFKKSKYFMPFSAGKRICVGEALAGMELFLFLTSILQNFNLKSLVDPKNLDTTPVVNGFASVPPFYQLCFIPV
Chain of Cytochrome P450 2C19 (P33261 whole entry): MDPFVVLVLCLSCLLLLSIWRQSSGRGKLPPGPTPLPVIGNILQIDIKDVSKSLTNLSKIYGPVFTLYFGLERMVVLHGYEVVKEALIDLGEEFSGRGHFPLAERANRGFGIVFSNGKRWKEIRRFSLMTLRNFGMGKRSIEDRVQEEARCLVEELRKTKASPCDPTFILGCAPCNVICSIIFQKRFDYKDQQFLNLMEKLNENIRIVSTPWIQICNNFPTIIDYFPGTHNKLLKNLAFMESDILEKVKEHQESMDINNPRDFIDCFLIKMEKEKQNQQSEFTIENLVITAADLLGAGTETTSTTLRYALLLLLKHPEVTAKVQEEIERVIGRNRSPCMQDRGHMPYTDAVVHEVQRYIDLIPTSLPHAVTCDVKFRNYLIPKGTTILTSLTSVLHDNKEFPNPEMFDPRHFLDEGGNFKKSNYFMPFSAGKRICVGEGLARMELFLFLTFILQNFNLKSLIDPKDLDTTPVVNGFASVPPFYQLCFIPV
Chain of Cytochrome P450 2D6 (P10635 whole entry): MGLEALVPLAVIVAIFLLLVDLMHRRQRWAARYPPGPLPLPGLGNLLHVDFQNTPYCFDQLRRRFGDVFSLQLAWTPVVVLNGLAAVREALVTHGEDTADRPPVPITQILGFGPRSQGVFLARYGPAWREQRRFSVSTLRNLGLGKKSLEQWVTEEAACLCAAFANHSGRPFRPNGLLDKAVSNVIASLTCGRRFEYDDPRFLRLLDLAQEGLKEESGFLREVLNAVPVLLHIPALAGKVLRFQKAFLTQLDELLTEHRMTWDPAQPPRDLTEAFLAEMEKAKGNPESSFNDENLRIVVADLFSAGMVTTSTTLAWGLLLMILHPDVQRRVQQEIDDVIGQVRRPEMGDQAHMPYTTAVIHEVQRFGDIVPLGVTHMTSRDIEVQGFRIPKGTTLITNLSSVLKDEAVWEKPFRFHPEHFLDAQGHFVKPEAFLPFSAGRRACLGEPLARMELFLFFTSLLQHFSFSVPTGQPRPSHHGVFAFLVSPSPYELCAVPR
Chain of Cytochrome P450 3A4 (P08684 whole entry): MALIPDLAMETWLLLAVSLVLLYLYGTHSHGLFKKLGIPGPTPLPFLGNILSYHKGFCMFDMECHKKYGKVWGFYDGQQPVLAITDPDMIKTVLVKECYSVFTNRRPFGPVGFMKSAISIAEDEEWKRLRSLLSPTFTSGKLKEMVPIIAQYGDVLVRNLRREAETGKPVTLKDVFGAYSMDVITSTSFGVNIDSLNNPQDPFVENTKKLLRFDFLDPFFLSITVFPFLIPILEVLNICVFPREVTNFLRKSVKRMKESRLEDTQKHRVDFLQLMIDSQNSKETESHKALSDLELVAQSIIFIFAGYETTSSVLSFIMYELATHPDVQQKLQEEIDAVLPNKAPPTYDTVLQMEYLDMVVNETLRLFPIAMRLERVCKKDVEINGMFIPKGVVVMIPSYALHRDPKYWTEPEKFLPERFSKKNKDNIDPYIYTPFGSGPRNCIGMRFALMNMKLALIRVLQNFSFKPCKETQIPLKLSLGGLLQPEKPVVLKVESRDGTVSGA
Chain of Voltage-gated inwardly rectifying potassium channel KCNH2 (Q12809 whole entry): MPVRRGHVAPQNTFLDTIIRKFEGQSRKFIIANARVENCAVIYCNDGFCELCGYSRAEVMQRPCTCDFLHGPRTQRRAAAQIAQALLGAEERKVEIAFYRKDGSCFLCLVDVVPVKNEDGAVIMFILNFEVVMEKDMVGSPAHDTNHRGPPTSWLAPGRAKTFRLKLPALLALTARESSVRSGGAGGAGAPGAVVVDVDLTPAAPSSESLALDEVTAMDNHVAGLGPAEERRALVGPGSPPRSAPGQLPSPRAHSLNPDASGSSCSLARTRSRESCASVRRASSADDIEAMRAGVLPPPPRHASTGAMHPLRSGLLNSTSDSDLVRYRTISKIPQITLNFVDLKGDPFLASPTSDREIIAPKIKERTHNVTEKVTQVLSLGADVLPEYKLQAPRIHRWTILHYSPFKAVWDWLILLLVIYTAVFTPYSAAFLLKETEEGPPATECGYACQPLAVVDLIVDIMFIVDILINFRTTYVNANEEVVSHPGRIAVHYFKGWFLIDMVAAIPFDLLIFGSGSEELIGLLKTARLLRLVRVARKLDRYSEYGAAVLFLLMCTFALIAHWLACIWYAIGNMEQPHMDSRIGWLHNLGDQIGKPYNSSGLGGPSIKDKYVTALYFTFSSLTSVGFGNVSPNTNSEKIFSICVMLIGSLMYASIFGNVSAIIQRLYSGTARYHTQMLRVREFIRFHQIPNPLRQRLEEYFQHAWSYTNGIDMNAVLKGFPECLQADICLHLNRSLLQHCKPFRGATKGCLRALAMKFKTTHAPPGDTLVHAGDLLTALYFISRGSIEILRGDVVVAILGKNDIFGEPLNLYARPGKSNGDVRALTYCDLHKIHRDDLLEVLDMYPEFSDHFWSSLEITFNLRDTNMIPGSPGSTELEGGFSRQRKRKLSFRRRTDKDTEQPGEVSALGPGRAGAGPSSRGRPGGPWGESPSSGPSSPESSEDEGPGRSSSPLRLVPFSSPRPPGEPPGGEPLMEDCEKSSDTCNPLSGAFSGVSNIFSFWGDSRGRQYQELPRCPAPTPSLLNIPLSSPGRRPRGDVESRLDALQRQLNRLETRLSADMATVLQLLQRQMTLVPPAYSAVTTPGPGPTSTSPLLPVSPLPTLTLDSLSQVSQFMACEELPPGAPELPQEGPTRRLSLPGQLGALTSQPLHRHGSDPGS

- pIC50 [1]: 7.96
- inhibition [2]: Dose-dependent-effect
- pIC50 [3]: 8.22
- pIC50 [4]: < 4.00
- half-life [7]: > 240 min
- inhibition [11]: Dose-dependent-effect
- pIC50 [12]: 8.30
- half-life [14]: 91.3 min
- pIC50 [15]: < 4.00
- CL free [18]: 358 mL/min/kg
- Fu [19]: 23%
- pIC50 [20]: < 4.00
- pIC50 [21]: 6.77
- pIC50 [22]: 6.05
- pIC50 [23]: 7.00
- inhibition [24]: Dose-dependent-effect
- pIC50 [25]: 8.52
- pIC50 [26]: 8.70
- fAUC [28]: 5.1 µM·min
- inhibition [30]: Dose-dependent-effect
- pIC50 [31]: 8.30
- pIC50 [36]: 6.63
- half-life [39]: 141 min
- inhibition [40]: Dose-dependent-effect
- pIC50 [41]: 8.05
SMILES: C[C@@H](n1cc(-c2cncc(N(C)C)c2)nn1)n1ccc(N2CCC[C@@H](NCC3CC3)C2)cc1=O
- pIC50 [5]: 7.70
- Activity [6]: Non-toxic
- Activity [8]: Non-toxic
- Activity [9]: Active
- Activity [10]: Active
- Activity [13]: Active
- Activity [16]: Active
- Activity [17]: Non-toxic
- Activity [27]: Non-toxic
- pIC50 [29]: 7.30
- inhibition [32]: Active
- Activity [33]: Active
- inhibition [34]: Active
- pIC50 [35]: < 4.52
- Activity [37]: Dose-dependent-effect
- pIC50 [38]: 7.43
- Activity [42]: Active
- viability at 50 µM [43]: 90.3%

Reference: ChEMBL document CHEMBL6121062, “Discovery, Optimization, and Preclinical Pharmacology of EP652, a METTL3 Inhibitor with Efficacy in Liquid and Solid Tumor Models” (J Med Chem, 2025)
